# Assay results reported in ChEMBL document CHEMBL5543125, “Discovery of 2,3-Dihydro[1,4]dioxino[2,3-g]benzofuran Derivatives as Protease Activated Receptor 4 (PAR4) Antagonists with Potent Antiplatelet Aggregation Activity and Low Bleeding Tendency” (J Med Chem, 2024).
# Activity calls are given as the source filed them. The rule behind the calls is not given here.
# Experiments:
# [1] = molecular target: T1, Platelet glycoprotein VI (Mus musculus) (UniProt P0C191); assay: Antagonist activity at GPVI in ICR mouse plasma assessed as inhibition of collagen induced platelet aggregation upto 1 uM preincubated for 5 mins followed by aggregation inducer addition and measured after 5 mins by light transmission aggregometry; format: cell-free; details: time 10.0 min
# T1 sequence (whole entry): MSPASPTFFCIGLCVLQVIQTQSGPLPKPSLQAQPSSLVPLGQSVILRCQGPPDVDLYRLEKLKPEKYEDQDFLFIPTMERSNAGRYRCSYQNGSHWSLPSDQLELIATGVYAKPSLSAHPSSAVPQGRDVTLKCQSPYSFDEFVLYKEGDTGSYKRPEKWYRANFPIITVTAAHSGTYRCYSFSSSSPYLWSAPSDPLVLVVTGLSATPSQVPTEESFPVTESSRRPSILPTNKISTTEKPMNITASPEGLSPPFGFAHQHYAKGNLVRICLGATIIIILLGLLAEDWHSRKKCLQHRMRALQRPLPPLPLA
# Plasma [2] = assay: Ex vivo antiplatelet aggregation activity in ICR mouse […] assessed as inhibition of ADP induced platelet aggregation at 6 to 12 mg/kg, po measured after 2 hrs by light transmission aggregometry relative to control; format: functional; details: dose 6-12 mg/kg
# [3] = AUC (0 to t) in ICR mouse at 12 mg/kg, po measured upto 24 hrs by LC-MS/MS analysis; format: ADME, organism-based; details: in vivo
# [4] = molecular target: T2, Thromboxane A2 receptor (Mus musculus) (UniProt P30987); assay: Antagonist activity at thromboxane A2 receptor in ICR mouse plasma assessed as inhibition of U46619 induced platelet aggregation upto 8 uM preincubated for 5 mins followed by aggregation inducer addition and measured after 5 mins by light transmission aggregometry; format: functional, cell-free; details: time 10.0 min
# T2 sequence (whole entry): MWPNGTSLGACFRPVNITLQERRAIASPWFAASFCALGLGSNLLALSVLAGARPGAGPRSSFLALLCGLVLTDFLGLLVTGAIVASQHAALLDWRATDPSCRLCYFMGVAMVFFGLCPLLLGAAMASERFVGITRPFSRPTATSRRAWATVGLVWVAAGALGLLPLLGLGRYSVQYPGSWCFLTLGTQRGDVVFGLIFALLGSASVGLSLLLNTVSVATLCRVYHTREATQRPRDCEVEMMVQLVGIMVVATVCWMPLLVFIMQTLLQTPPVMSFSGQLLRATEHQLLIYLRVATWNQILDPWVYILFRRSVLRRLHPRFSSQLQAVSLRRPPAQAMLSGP
# [5] = Toxicity in C57BL/6J mouse assessed as prolongation of bleeding time at 3 to 12 mg/kg, po administered via oral gavage and measured after 2 hrs; format: organism-based; details: in vivo, dose 3-12 mg/kg
# [6] = Clearance in ICR mouse at 2 mg/kg, iv measured upto 24 hrs by LC-MS/MS analysis; format: ADME, organism-based; details: in vivo
# [7] = Terminal elimination half life in ICR mouse at 12 mg/kg, po measured upto 24 hrs by LC-MS/MS analysis; format: ADME, organism-based; details: in vivo, read-out: beta t1/2 (converted)
# Plasma [8] = assay: Ex vivo antiplatelet aggregation activity in po dosed ICR mouse […] assessed as inhibition of ADP induced platelet aggregation measured after 2 hrs by light transmission aggregometry; format: functional, organism-based; details: dose 1-12 mg/kg
# Platelet [9] = assay: Antagonist activity at P2Y1/P2Y12 in ICR mouse plasma assessed as inhibition of ADP induced platelet aggregation upto 1 uM preincubated for 5 mins followed by aggregation inducer addition and measured after 5 mins by light transmission aggregometry; format: cell-free; details: time 10.0 min
# Platelet [10] = assay: Antagonist activity at P2Y1/P2Y12 in ICR mouse plasma assessed as inhibition of ADP induced platelet aggregation upto 8 uM preincubated for 5 mins followed by aggregation inducer addition and measured after 5 mins by light transmission aggregometry; format: cell-free; details: time 10.0 min
# Plasma [11] = assay: Anticoagulation activity in ICR mouse platelet poor plasma assessed as elongation of aPTT upto 20 uM incubated for 3 mins; format: functional, cell-free
# Platelet [12] = assay: Inhibition of platelet aggregation in human platelet rich plasma preincubated for 5 mins followed by aggregation inducer addition and measured after 5 mins by light transmission aggregometry; format: functional, cell-based
# [13] = AUC (0 to t) in ICR mouse at 2 mg/kg, iv measured upto 24 hrs by LC-MS/MS analysis; format: ADME, organism-based; details: in vivo
# [14] = molecular target: T2, Thromboxane A2 receptor (Mus musculus); assay: Antagonist activity at thromboxane A2 receptor in ICR mouse plasma assessed as inhibition of U46619 induced platelet aggregation upto 1 uM preincubated for 5 mins followed by aggregation inducer addition and measured after 5 mins by light transmission aggregometry; format: functional, cell-free; details: time 10.0 min
# Plasma [15] = assay: Anticoagulation activity in ICR mouse platelet poor plasma assessed as elongation of prothrombin time upto 20 uM incubated for 3 mins; format: functional, cell-free
# Plasma [16] = assay: Ex vivo antiplatelet aggregation activity in po dosed ICR mouse […] assessed as inhibition of PAR4-activated peptide AYPGFK-NH2 induced platelet aggregation measured after 2 hrs by light transmission aggregometry; format: functional, organism-based; details: dose 1-12 mg/kg
# [17] = Metabolic stability in human liver microsomes assessed as half life at 1 uM preincubated for 1 hr followed by NADPH addition and measured upto 60 mins by LC-MS/MS analysis; format: ADME, Microsome; details: time < 120 min
# [18] = Cmax in ICR mouse at 12 mg/kg, po measured upto 24 hrs by LC-MS/MS analysis; format: ADME, organism-based; details: in vivo
# [19] = molecular target: Voltage-gated inwardly rectifying potassium channel KCNH2 (Homo sapiens, UniProt Q12809); assay: Inhibition of hERG expressed in HEK293 cells by whole cell patch clamp assay; format: toxicity, cell-based
# Voltage-gated inwardly rectifying potassium channel KCNH2, sequence (Q12809 whole entry): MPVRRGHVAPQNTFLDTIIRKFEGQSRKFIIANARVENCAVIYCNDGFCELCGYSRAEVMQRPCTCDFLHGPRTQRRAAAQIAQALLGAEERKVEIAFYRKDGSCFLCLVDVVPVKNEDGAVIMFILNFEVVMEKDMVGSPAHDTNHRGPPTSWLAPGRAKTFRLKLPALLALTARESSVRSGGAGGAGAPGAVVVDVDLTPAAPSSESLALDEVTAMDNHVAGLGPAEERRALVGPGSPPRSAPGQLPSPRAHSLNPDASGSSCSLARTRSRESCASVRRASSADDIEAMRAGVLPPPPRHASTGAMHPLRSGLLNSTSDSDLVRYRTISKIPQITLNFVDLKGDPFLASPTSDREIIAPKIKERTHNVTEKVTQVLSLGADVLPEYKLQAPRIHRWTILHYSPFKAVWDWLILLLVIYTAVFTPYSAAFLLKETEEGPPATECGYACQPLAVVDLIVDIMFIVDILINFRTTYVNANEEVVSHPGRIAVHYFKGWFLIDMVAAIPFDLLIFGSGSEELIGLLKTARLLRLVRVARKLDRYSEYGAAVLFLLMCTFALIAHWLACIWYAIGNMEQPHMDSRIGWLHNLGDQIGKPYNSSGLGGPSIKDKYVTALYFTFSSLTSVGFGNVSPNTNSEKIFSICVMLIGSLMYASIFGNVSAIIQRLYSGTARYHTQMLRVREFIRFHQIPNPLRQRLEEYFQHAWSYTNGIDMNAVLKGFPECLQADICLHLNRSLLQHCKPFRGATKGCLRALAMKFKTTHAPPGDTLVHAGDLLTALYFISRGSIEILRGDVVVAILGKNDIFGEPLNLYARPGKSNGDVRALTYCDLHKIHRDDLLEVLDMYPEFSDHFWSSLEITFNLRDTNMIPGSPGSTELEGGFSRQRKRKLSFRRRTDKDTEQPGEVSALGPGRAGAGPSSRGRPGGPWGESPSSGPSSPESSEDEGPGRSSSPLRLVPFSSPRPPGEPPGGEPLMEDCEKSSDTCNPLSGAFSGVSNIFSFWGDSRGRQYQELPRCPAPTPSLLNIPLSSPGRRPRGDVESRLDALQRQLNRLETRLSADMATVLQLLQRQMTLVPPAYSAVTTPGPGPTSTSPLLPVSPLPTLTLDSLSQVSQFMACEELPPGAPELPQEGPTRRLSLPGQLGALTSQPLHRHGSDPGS
# [20] = molecular target: T3, Proteinase-activated receptor 4 (Mus musculus) (UniProt O88634); assay: Antagonist activity at PAR4 in ICR mouse plasma assessed as inhibition of PAR4-activated peptide AYPGPK-NH2 induced platelet aggregation at 100 to 1000 nM preincubated for 5 mins followed by aggregation inducer addition and measured after 5 mins by light transmission aggregometry; format: cell-free; details: filed as antagonist, dose 100-1000 nM, time 10.0 min
# T3 sequence (whole entry): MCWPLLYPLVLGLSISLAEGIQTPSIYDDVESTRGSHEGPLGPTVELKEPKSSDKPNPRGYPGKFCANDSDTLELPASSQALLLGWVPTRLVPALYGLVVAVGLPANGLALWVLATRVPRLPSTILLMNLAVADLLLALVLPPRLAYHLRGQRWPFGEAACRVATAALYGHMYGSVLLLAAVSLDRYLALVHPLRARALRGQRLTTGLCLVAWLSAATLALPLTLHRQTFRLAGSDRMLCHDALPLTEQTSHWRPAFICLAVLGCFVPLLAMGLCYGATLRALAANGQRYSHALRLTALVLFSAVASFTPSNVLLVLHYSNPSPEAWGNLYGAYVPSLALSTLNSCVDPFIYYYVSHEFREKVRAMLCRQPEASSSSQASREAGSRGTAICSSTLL
# Platelet [21] = assay: Antiplatelet aggregation activity in ICR mouse plasma assessed as inhibition of thrombin induced platelet aggregation upto 1 uM preincubated for 5 mins followed by aggregation inducer addition and measured after 5 mins by light transmission aggregometry; format: functional, cell-based; details: time 10.0 min
# [22] = molecular target: T1, Platelet glycoprotein VI (Mus musculus); assay: Antagonist activity at GPVI in ICR mouse plasma assessed as inhibition of collagen induced platelet aggregation upto 8 uM preincubated for 5 mins followed by aggregation inducer addition and measured after 5 mins by light transmission aggregometry; format: cell-free; details: time 10.0 min
# [23] = Tmax in ICR mouse at 12 mg/kg, po measured upto 24 hrs by LC-MS/MS analysis; format: ADME, organism-based; details: in vivo
# [24] = Terminal elimination half life in ICR mouse at 2 mg/kg, iv measured upto 24 hrs by LC-MS/MS analysis; format: ADME, organism-based; details: in vivo, read-out: beta t1/2 (converted)
# Platelet [25] = assay: Antiplatelet aggregation activity in ICR mouse plasma assessed as inhibition of thrombin induced platelet aggregation upto 8 uM preincubated for 5 mins followed by aggregation inducer addition and measured after 5 mins by light transmission aggregometry; format: functional, cell-based; details: time 10.0 min
# [26] = Oral bioavailability in ICR mouse at 12 mg/kg measured upto 24 hrs by LC-MS/MS analysis; format: ADME, organism-based; details: in vivo
# Platelet [27] = assay: Inhibition of platelet aggregation in human platelet rich plasma at 20 uM preincubated for 5 mins followed by aggregation inducer addition and measured after 5 mins by light transmission aggregometry relative to control; format: functional; details: 10 min
# Plasma [28] = assay: Ex vivo antiplatelet aggregation activity in ICR mouse […] assessed as inhibition of PAR4-activated peptide AYPGFK-NH2 induced platelet aggregation at 6 to 12 mg/kg, po measured after 2 hrs by light transmission aggregometry relative to control; format: functional; details: dose 6-12 mg/kg
# [29] = molecular target: T3, Proteinase-activated receptor 4 (Mus musculus); assay: Antagonist activity at PAR4 in ICR mouse plasma assessed as inhibition of PAR4-activated peptide AYPGPK-NH2 induced platelet aggregation at 200 to 1000 nM preincubated for 5 mins followed by aggregation inducer addition and measured after 5 mins by light transmission aggregometry; format: cell-free; details: filed as antagonist, dose 200-1000 nM, time 10.0 min
# [30] = molecular target: T4, Platelet glycoprotein VI (Homo sapiens) (UniProt Q9HCN6); assay: Antagonist activity at GPVI in human platelet rich plasma assessed as inhibition of collagen induced platelet aggregation at >=4 uM preincubated for 5 mins followed by aggregation inducer addition and measured after 5 mins by light transmission aggregometry; format: cell-free; details: filed as antagonist, time 10.0 min
# T4 sequence (whole entry): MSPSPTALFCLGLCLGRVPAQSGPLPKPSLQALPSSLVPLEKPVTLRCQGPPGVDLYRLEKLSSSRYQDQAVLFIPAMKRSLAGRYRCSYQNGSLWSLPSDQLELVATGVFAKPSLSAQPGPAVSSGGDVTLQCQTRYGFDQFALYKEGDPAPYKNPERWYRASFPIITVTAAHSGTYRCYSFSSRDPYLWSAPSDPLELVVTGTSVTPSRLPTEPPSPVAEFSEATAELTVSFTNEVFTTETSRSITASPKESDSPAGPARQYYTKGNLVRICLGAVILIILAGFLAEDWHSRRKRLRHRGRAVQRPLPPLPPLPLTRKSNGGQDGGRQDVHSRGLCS
# Plasma [31] = assay: Ex vivo antiplatelet aggregation activity in ICR mouse […] assessed as inhibition of ADP induced platelet aggregation at 6 mg/kg, po measured after 2 hrs by light transmission aggregometry; format: functional, organism-based
# Plasma [32] = assay: Ex vivo antiplatelet aggregation activity in ICR mouse […] assessed as inhibition of PAR4-activated peptide AYPGFK-NH2 induced platelet aggregation at 6 mg/kg, po measured after 2 hrs by light transmission aggregometry; format: functional, organism-based
Structure (SMILES),Activity [1],inhibition (INH) (Plasma [2]) [%],AUC(0-t) at 24 h [3] [ng·h/mL],Activity [5],clearance [6] [mL/min/kg],half-life [7] [h],Activity (Plasma [8]),Activity (Platelet [9]),Activity (Plasma [11]),IC50 (Platelet [12]) [nM],AUC(0-t) at 24 h [13] [ng·h/mL],Activity [14],Activity (Plasma [15]),Activity (Plasma [16]),half-life at 1 µM [17] [h],Cmax [18] [ng/mL],IC50 [19] [nM],Activity (Platelet [21]),Tmax [23] [h],half-life [24] [h],other results
COc1nn2cc(-c3cc4ccc5c(c4o3)OCC(COc3ccc(F)cc3)O5)nc2s1 (stereo not given),inactive,>90,3040,Non-Toxic,3,29.5,Dose-Dependent Effect,inactive,inactive,14.2,5390,inactive,inactive,Dose-Dependent Effect,0.708,204,> 30000,inactive,2,38.3,Activity [4]: inactive; Activity (Platelet [10]): inactive; Activity [20]: Active; Activity [22]: inactive; Activity (Platelet [25]): inactive; bioavailability [26]: 9.61%; inhibition at 20 µM (Platelet [27]): 87.2%; inhibition (INH) (Plasma [28]): >90%
COc1nn2cc(-c3cc4ccc5c(c4o3)OC(COc3ccc(F)cc3)CO5)nc2s1 (stereo not given),inactive,>90,3460,Non-Toxic,23.8,7.32,Dose-Dependent Effect,inactive,inactive,26.1,1250,inactive,inactive,Dose-Dependent Effect,1.63,325,21600,inactive,1.67,11.3,Activity [29]: Active; Activity [30]: Active; bioavailability [26]: 45.1%; inhibition at 20 µM (Platelet [27]): 85.9%; inhibition (INH) (Plasma [28]): >90%
COc1nn2cc(-c3cc4ccccc4o3)nc2s1,,,,,,,,,,,,,,,,,,,,,Activity (Plasma [31]): inactive; Activity (Plasma [32]): inactive
